Source: patent EP0231622B1, “Inhibition of the 5-lipoxygenase pathway” (priority 1985, dated 1987)
Marks after values point to notes of the source that are not given here.

Each compound was assayed on Polymorphonuclear Leukocytes (assay: Mouse Carrageenan Peritonitis (PMN infiltration)). Settings: Table 2, Experiment 2; 50 mg/kg, s.c.
Assay type: in vivo, Balb/c mice
Description: In the following Examples where mice were used, they were male Balb/c mice (20-28 g), and where rats were used, they were male Lewis rats (180-210 g). All mice and rats were obtained from Charles River Breeding Laboratories, Kingston, N.Y. Within a single experiment, mice and rats were sex and age matched.
The compounds of Formula (IA) were used either as the free base or in the appropriate salt form. Levamisole was used as the hydrochloride salt. The compounds were homogenized in 0.5% tragacanth. Compounds were administered by gavage at the indicated dose in a final volume of 10 ml/kg. Nordihydroguaiaretic acid (NDGA) was solubilized in dimethylacetamide and diluted with olive oil for subcutaneous administration.
Mice were pretreated with either the test compound or vehicle one hour before the intraperitoneal injection of a 1.0% carrageenan suspension in saline (0.2 ml/ mouse). Mice were sacrificed by cervical dislocation two hours after injection, and 3.0 ml of phosphate buffered saline, without Ca⁺⁺ or Mg⁺⁺, was injected into the peritoneum. Following massage, a 2.0 ml aliquot of the lavage fluid was removed, and the total cell count determined on a Coulter counter and differential cell count determined by microscopic examination of Giesma-stained slides.
In the case of CC(Cc1ccc(O)c(O)c1)C(C)Cc1ccc(O)c(O)c1 (stereo not drawn) [NDGA, Nordihydroguaiaretic acid], the “% Change” value is reported as 41^c % and the “PMN x 10⁻⁵/ml (mean ± S.D.)” value is reported as 5.7 ± 2.1 x 10⁻⁵/ml.

The compounds below were run against T1, 5-LO (Rattus norvegicus, UniProt P12527) (assay: di-HETE production by RBL-1 high speed supernatant). Settings: Table 9A; di-HETE production by RBL-1 high speed supernatant; read-out: 5-LO IC50.
T1 construct: The activities of these enzymes in extracts of RBL-1 cells were assayed; host or cells: RBL-1 cells, disrupted by nitrogen cavitation; 10,000 x g or 100,000 x g supernatant
T1 sequence (P12527 1-673): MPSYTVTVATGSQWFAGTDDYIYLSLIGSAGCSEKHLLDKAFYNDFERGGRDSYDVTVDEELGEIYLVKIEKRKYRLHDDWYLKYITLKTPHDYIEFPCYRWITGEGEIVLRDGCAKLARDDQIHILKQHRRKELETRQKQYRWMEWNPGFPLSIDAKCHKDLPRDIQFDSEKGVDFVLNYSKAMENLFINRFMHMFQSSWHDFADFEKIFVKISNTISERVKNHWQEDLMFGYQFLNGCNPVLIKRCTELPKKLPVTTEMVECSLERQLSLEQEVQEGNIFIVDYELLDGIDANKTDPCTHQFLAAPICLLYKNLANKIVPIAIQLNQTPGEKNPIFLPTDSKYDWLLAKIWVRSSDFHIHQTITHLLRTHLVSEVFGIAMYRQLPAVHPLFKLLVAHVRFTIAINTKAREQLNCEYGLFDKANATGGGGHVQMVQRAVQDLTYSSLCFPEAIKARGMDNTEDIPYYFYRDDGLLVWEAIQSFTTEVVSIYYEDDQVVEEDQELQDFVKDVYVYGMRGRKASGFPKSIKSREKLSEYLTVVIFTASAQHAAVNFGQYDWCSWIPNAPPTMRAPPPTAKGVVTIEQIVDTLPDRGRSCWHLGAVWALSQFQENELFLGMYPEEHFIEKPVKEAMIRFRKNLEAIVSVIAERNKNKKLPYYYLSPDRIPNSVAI
Assay type: biochemical
Procedure: (§1) For in vitro experiments, compounds were dissolved at appropriate concentrations in ethanol or DMSO (dimethylsulfoxide) (final concentration <1.0%) and then diluted to final concentrations using the buffers indicated in the text.
(§2) The activities of these enzymes in extracts of RBL-1 cells were assayed using the method of Jakschik and Lee, Nature, 287, 51-52 (1980). RBL-1 cells were obtained from the American Type Culture Collection (#CRL 1378) and were grown at 37°C (5% CO₂ in air) in spinner culture in MEM supplemented with 10% heat inactivated fetal calf serum. Harvested cells were washed with 50 mM sodium phosphate buffer, pH 7.0, containing 1 mM EDTA and 0.1% gelatin, resuspended in fresh buffer (5 x 10⁷ cells/ml) and disrupted by nitrogen cavitation using the Parr bomb at 750 psi for 10 min. The broken cell extract was then centrifuged at 10,000 x g for 20 minutes and the supernatant centrifuged at 100,000 x g for 60 minutes. Aliquots (0.25 mls) of the supernatant were preincubated with or without drugs for 10 min, after which 10 ul CaCl₂ (50 mM) was added and the reaction was initiated with 2.5 ul of 2.5 mM arachidonic acid-1-¹⁴C (final concentration was […]; specific activity 20,000 dpm/nmole). After incubation for 3 min at 37°C, the reaction was terminated by addition of 2 volumes (0.5 ml) ice cold acetone and the sample was allowed to deproteinize on ice for 10 min prior to centrifugation at 1,000 x g for 10 min. The deproteinized supernatant was adjusted to pH 3.5 with 2N formic acid and extracted with 2 volumes of ice cold ethyl acetate. The extracted samples were dried under argon, redissolved in ethyl acetate and applied to Whatman LK5D thin layer chromatography (TLC) plates which were developed using the A-9 solvent system [organic phase of ethyl acetate: 2,2,5-trimethylpentane:acetic acid: water (110:50:20:10)] described by Hamberg and Samuelsson, J. Biol. Chem., 241, 257-263 (1966). Arachidonic acid, 5-HETE, di-HETE and PGD₂ were quantified with a Berthold LB 2832 autoscanner.
(§3) The 5-lipoxygenase and LTA₄ synthetase activities were further studied under the following conditions. An additional centrifugation of the RBL-1 supernatant was run at 100,000 x g for 60 min, to remove the particulate cyclooxygenase activity. Sample incubation was done under conditions similar to those described above, i.e., 2 mM CaCl₂ and 25 uM arachidonic acid-1-¹⁴C, however, with an incubation time of 5 min at […]. Under these conditions, only the 5-lipoxygenase pathway metabolites were detectable. The 5-HETE and di-HETEs were formed at a linear rate, and […] amounts of the arachidonic acid-1-¹⁴C substrate were utilized.
[O-][S+]1CCn2c1nc(-c1ccc(F)cc1)c2-c1ccncc1 (stereo not drawn) [Compound 28, 6-(4-fluorophenyl)-5-(4-pyridyl)-2,3-dihydroimadazo-[2,1-b]thiazole-1-oxide] was tested, and the IC50 was 1000 µM.
With O=S1(=O)CCn2c1nc(-c1ccc(F)cc1)c2-c1ccncc1 [Compound 29, 6-(4-fluorophenyl)-5-(4-pyridyl)-2,3-dihydroimidazo[2,1b]thiazole-1,1-dioxide] the IC50 was > 100 µM.
c1cc(N2CCCCC2)ccc1-c1nc2n(c1-c1ccc(N3CCCCC3)cc1)CCS2 [Compound 4, 5,6-bis(4-(1-piperidinyl)phenyl)-2,3-dihydroimidazo[2,1-b] thiazole] was tested, and the IC50 was 0.6 µM.
c1cc(-c2nc3n(c2-c2ccc4c(c2)OCO4)CCS3)ccn1 [Compound 7, 6-(4-pyridyl)-5-(3,4-methylenedioxyphenyl)-2,3-dihydroimidazo[2,1-b]thiazole] was tested, and the IC50 was 10 µM.
COc1ccc(-c2nc3n(c2-c2ccncc2)CCS3)cc1 [Compound 18] gave an IC50 of 1.9 µM.
FC(F)(F)c1ccc(-c2nc3n(c2-c2ccc(C(F)(F)F)cc2)CCS3)cc1 [Compound 15] showed an IC50 of 10 µM.
In the case of c1cc(-c2nc3n(c2-c2ccncc2)CCS3)ccn1 [Compound 11, 5,6-Bis(4-pyridyl)-2,3-dihydroimidazo(2,1-b)thiazole], the IC50 is reported as 33 µM.
With Nc1ccc(-c2nc3n(c2-c2ccc(N)cc2)CCS3)cc1 [Compound 45, 5,6-bis(4-aminophenyl)-2,3-dihydroimidazo[2,1-b]thiazole] the IC50 was 6 µM.
For Fc1ccc(-c2nc3n(c2-c2ccccn2)CCS3)cc1 [Compound 23, 5-(2-pyridinyl)-6-(4-fluorophenyl)-2,3-dihydroimidazo[2,1-b]thiazole], the IC50 was 42 µM.
Work on c1cc(N2CCCC2)ccc1-c1nc2n(c1-c1ccc(N3CCCC3)cc1)CCS2 [Compound 3, 5,6-bis(4-(1-pyrrolidinyl)phenyl)-2,3-dihydroimidazo[2,1-b] thiazole] yielded an IC50 of 0.1 µM.
CCCNc1ccc(-c2nc3n(c2-c2ccncc2)CCS3)cc1 [Compound 2, 6-(4-(1-Propylamino)phenyl)-5-(4-pyridyl)-2,3-dihydroimidazo[2,1-b]thiazole] was tested, and the IC50 was 7 µM.
Compound Fc1ccc(-c2nc3n(c2-c2ccc(F)cc2)CCC3)cc1 [Compound 8, 2,3-Bis(4-fluorophenyl)-6,7-dihydro-5H-pyrrolo[1,2-a]imidazole] has an IC50 of 8 µM.
Fc1ccc(-c2c(-c3ccccn3)nc3n2CCS3)cc1 [Compound 24, 5-(4-fluorophenyl)-6-(2-pyridinyl)-2,3-dihydroimidazo[2,1-b]thiazole] was tested, and the IC50 was 20 µM.
COc1ccc(-c2nc3n(c2-c2ccc(OC)cc2)CCS3)cc1 [Compound 21] gave an IC50 of 2.8 µM.
With CSc1ccc(-c2nc3n(c2-c2ccc(SC)cc2)CCS3)cc1 [Compound 32] the IC50 was > 100 µM.

Each compound was assayed against T2, 5-Lipoxygenase (Rattus norvegicus, UniProt P12527) (assay: 5-HETE production by RBL-1 high speed supernatant). Settings: Table 8A; RBL-1 high speed supernatant.
T2 construct: The activities of these enzymes in extracts of RBL-1 cells were assayed; host or cells: RBL-1 cells, disrupted by nitrogen cavitation; 10,000 x g or 100,000 x g supernatant
T2 sequence (P12527 1-673): T1 sequence (P12527 1-673)
Assay type: biochemical
Procedure: as §1, §2, §3
For [O-][S+]1CCn2c1nc(-c1ccc(F)cc1)c2-c1ccncc1 (stereo not drawn) [Compound 28, 6-(4-fluorophenyl)-5-(4-pyridyl)-2,3-dihydroimadazo-[2,1-b]thiazole-1-oxide], the IC50 was 1000 µM.
For O=S1(=O)CCn2c1nc(-c1ccc(F)cc1)c2-c1ccncc1 [Compound 29, 6-(4-fluorophenyl)-5-(4-pyridyl)-2,3-dihydroimidazo[2,1b]thiazole-1,1-dioxide], the IC50 was 100 µM.
c1cc(N2CCCCC2)ccc1-c1nc2n(c1-c1ccc(N3CCCCC3)cc1)CCS2 [Compound 4, 5,6-bis(4-(1-piperidinyl)phenyl)-2,3-dihydroimidazo[2,1-b] thiazole] was tested, and the IC50 was 1.2 µM.
Work on c1cc(-c2nc3n(c2-c2ccc4c(c2)OCO4)CCS3)ccn1 [Compound 7, 6-(4-pyridyl)-5-(3,4-methylenedioxyphenyl)-2,3-dihydroimidazo[2,1-b]thiazole] yielded an IC50 of 10 µM.
COc1ccc(-c2nc3n(c2-c2ccncc2)CCS3)cc1 [Compound 18] was tested, and the IC50 was 5.4 µM.
Compound FC(F)(F)c1ccc(-c2nc3n(c2-c2ccc(C(F)(F)F)cc2)CCS3)cc1 [Compound 15] has an IC50 of 10 µM.
c1cc(-c2nc3n(c2-c2ccncc2)CCS3)ccn1 [Compound 11, 5,6-Bis(4-pyridyl)-2,3-dihydroimidazo(2,1-b)thiazole] was tested, and the IC50 was 110 µM.
Work on Nc1ccc(-c2nc3n(c2-c2ccc(N)cc2)CCS3)cc1 [Compound 45, 5,6-bis(4-aminophenyl)-2,3-dihydroimidazo[2,1-b]thiazole] yielded an IC50 of 8 µM.
Work on Fc1ccc(-c2nc3n(c2-c2ccccn2)CCS3)cc1 [Compound 23, 5-(2-pyridinyl)-6-(4-fluorophenyl)-2,3-dihydroimidazo[2,1-b]thiazole] yielded an IC50 of 90 µM.
In the case of c1cc(N2CCCC2)ccc1-c1nc2n(c1-c1ccc(N3CCCC3)cc1)CCS2 [Compound 3, 5,6-bis(4-(1-pyrrolidinyl)phenyl)-2,3-dihydroimidazo[2,1-b] thiazole], the IC50 is reported as 0.23 µM.
Compound CCCNc1ccc(-c2nc3n(c2-c2ccncc2)CCS3)cc1 [Compound 2, 6-(4-(1-Propylamino)phenyl)-5-(4-pyridyl)-2,3-dihydroimidazo[2,1-b]thiazole] has an IC50 of 12 µM.
Fc1ccc(-c2nc3n(c2-c2ccc(F)cc2)CCC3)cc1 [Compound 8, 2,3-Bis(4-fluorophenyl)-6,7-dihydro-5H-pyrrolo[1,2-a]imidazole] was tested, and the IC50 was 12 µM.
Compound Fc1ccc(-c2c(-c3ccccn3)nc3n2CCS3)cc1 [Compound 24, 5-(4-fluorophenyl)-6-(2-pyridinyl)-2,3-dihydroimidazo[2,1-b]thiazole] has an IC50 of 37 µM.
COc1ccc(-c2nc3n(c2-c2ccc(OC)cc2)CCS3)cc1 [Compound 21] showed an IC50 of 3.9 µM.
With CSc1ccc(-c2nc3n(c2-c2ccc(SC)cc2)CCS3)cc1 [Compound 32] the IC50 was > 10 µM.

Same assay, conditions: read-out: % inhibition at 10 μM; 10 μM; 5-HETE production, footnotes of Table 8A
Compound CSc1ccc(-c2nc3n(c2-c2ccc(SC)cc2)CCS3)cc1 [Compound 32] has an inhibition at 10 µM of 35 to 40%.
